According to patent US9518065B2, “IRAK inhibitors and uses thereof” (NIMBUS IRIS, INC., priority 2013, dated 2016):
Like-named read-outs stand apart in the source and are kept apart here.

Tests used:
IRAK4 = target: T1, IRAK4 (Homo sapiens, UniProt Q9NWZ3); assay: IRAK-4 activity inhibition assay (Caliper); assay type: biochemical; settings: 3.5 nM IRAK4, 37 μM ATP, 1.5 μM Peptide 8
T1 construct: purchased CARNA Bioscience 09-145
T1 sequence (Q9NWZ3 1-460): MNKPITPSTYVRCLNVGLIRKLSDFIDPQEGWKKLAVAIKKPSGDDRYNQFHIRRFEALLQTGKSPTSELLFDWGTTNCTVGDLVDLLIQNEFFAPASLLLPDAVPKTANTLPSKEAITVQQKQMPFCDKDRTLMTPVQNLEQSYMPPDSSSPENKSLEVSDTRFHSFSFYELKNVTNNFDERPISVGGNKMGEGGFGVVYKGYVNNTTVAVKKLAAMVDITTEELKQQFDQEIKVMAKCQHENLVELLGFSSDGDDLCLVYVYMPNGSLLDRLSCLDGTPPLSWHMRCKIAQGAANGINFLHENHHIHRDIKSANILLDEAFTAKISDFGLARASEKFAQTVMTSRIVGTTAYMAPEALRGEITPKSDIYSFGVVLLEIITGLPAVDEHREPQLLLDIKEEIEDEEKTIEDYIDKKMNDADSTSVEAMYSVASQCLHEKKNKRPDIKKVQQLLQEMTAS
Description: A 1× kinase base buffer was prepared from 50 mM HEPES, pH 7.5 and 0.0015% Brij-35. A stop buffer was prepared from 100 mM HEPES, pH 7.5, 0.015% Brij-35, 0.2% Coating Reagent #3, and 50 mM EDTA.
Test compound was diluted to 50× of the final desired highest inhibitor concentration in reaction by 100% DMSO. 100 ul of this compound dilution was transferred to a well in a 96-well plate. For example, if desired highest inhibitor concentration in IC50 determination is 100 uM, then prepare 5000 uM of compound DMSO solution in this step.
Test compound was serially diluted by transferring 30 μl to 60 μl of 100% DMSO in the next well and so forth for a total of 10 concentrations. 100 μl of 100% DMSO was added to two empty wells for no compound control and no enzyme control in the same 96-well plate.
A new 96-well plate was marked as intermediate plate. 5 μl of compound serial dilution was transferred from source plate to the corresponding wells of the intermediate plate. 45 μl of 1× kinase base buffer (KB buffer) was added to each well of the intermediate plate. The intermediate plate was placed for 10 min on a shaker.
5 μl of each well was transferred from the 96-well intermediate plate to a 384-well plate in duplicates. For example, A1 of the 96-well plate is transferred to A1 and A2 of the 384-well plate. A2 of the 96-well plate is transferred to A3 and A4 of the 384-well plate, and so on.
IRAK4 and DTT in 1× kinase base buffer was added. The 2.5× enzyme mix contained 8.8 nM IRAK4 and 5 mM DTT.
Peptide 8, ATP, MgCl2 and MnCl2 were added in the 1× kinase base buffer. The 2.5× peptide mix contained 3.75 μM peptide 8, 92.5 μM ATP, 12.5 mM MgCl2 and 2.5 mM MnCl2.
Assay plate already contained 5 μl of compound in 10% DMSO. Added 10 μl of 2.5× enzyme solution to each well of the 384-well assay plate, except no enzyme control wells. The final concentration of IRAK4 in reaction was 3.5 nM. Added 10 μl of 1× kinase base buffer to no enzyme control wells in the assay plate. Incubated at room temperature for 10 min.
Added 10 μl of 2.5× peptide solution to each well of the 384-well assay plate. The final concentration of Peptide 8 and ATP was 1.5 μM and 37 μM, respectively. Incubated at 28° C. for 40 minutes. Added 25 μl of stop buffer to stop reaction. Collected data on Caliper.
Copied conversion % data from Caliper program. Converted conversion % values to percent inhibition values. Percent inhibition=(max-conversion %)/(max-min)*100, where “max” means the conversion % of DMSO control and “min” means the conversion % of no enzyme control.
The compound numbers correspond to the compound numbers in Table 1. Compounds having an activity designated as “A” provided an IC50≦1 μM; compounds having an activity designated as “B” provided an IC50 of 1-5 μM; compounds having an activity designated as “C” provided an IC50 of ≧5 μM. “NA” stands for “not assayed.”

[1] = tested on: TNFα and IL8 production in THP-1 cells; assay: LPS induced cytokine (TNFα and IL8) production assay in THP-1 cells; assay type: cell-based; settings: Homo sapiens, 300 ng/mL LPS
Description: Provided compounds were also assayed in an LPS (Lipopolysacharide) or R848 (TLR-7 agonist) induced cytokine (TNFα and IL8) production assay in THP-1 cells, human white blood cells (hWBC), and whole blood. The exemplary protocol for this assay in THP-1 cells was as follows below.
THP-1 cells from ATCC (TIB-202) were cultured in RPMI Medium 1640 (Invitrogen, Cat No. A10491-01), 10% fetal bovine serum (Invitrogen, Cat No. 10099141, Lot No. 8172882) containing 100 U/mL Penicillin, 100 μg/mL streptomycin (Invitrogen, Cat No. 15140-122), and 50 uM 2-Mercaptoethanol (Invitrogen, Cat No. 21985023). LPS-EK ultra pure (Invivogen, Cat No. tlrl-peklps) was used to induce IL8 and TNFα production, that was detected in the cell culture supernatant by IL8 HTRF kit (Cisbio, Cat No. 62IL8PEB) and TNFα HTRF kit (Cisbio, Cat No. 62TNFPEB), as per manufacturer instructions. Cells were cultured in 96 well assay plates at 100,000 cells per well, and compounds diluted in final 0.3% DMSO were pre-incubated with cells for 1 hour prior to stimulation with 300 ng/mL LPS. Cytokine production in cell supernatant was measured at 5 hours for TNFα and IL8 production, and for 16 hours for IL8 production and assessment of cell viability.
The compound numbers correspond to the compound numbers in Table 1. […] “NA” stands for “not assayed.”

[2] = 5 hours, read-out: TNFα production IC50
[3] = 16 hours, read-out: IL8 (16 h) production IC50

SMILES	IC50 (IRAK4) [nM]	IC50 [1, 2] [nM]	IC50 [1, 3] [nM]
CCc1nc2c(N[C@H]3CC[C@H](N4CCOCC4)CC3)nc(Nc3cnn(CCOC)c3)nc2s1 [Compound I-34, 2-ethyl-N5-(1-(2-methoxyethyl)-1H-pyrazol-4-yl)-N7-((1r,4r)-4-morpholinocyclohexyl)thiazolo[5,4-d]pyrimidine-5,7-diamine]	≤ 1000	≤ 250	≤ 250
CCc1nc2c(O[C@H]3CC[C@H](N4CCOCC4)CC3)nc(Nc3cnn(C4CCOCC4)c3)nc2s1 [Compound I-26, 2-ethyl-7-(((1r,4r)-4-morpholinocyclohexyl)oxy)-N-(1-(tetrahydro-2H-pyran-4-yl)-1H-pyrazol-4-yl)thiazolo[5,4-d]pyrimidin-5-amine]	≤ 1000	≤ 250	≤ 250
Cc1nc2c(N[C@H]3CC[C@H](N4CCOCC4)CC3)nc(Nc3cnn(CCS(C)(=O)=O)c3)nc2s1 [Compound I-40, 2-methyl-N5-(1-(2-(methylsulfonyl)ethyl)-1H-pyrazol-4-yl)-N7-((1r,4r)-4-morpholinocyclohexyl)thiazolo[5,4-d]pyrimidine-5,7-diamine]	≤ 1000	≤ 250	250 to 500
CCc1nc2c(N[C@H]3CC[C@H](N4CCC(O)CC4)CC3)nc(Nc3cnn(C4CCOCC4)c3)nc2s1 [Compound I-16]	≤ 1000	≤ 250	
CCc1nc2c(N[C@H]3CC[C@H](N4CCC5(CC4)CC5)CC3)nc(Nc3cnn(C)c3)nc2s1 [Compound I-21, N7((1r,4r)-4-(6-azaspiro[2.5]octan-6-yl)cyclohexyl)-2-ethyl-N5-(1-methyl-1H-pyrazol-4-yl)thiazolo[5,4-d]pyrimidine-5,7-diamine]	≤ 1000	≤ 250	≤ 250
CCc1nc2c(N[C@H]3CC[C@H](N4CCC(F)(F)CC4)CC3)nc(Nc3cnn(C4CCOCC4)c3)nc2s1 [Compound I-19, 2-ethyl-5-N-[1-(oxan-4-yl)-1H-pyrazol-4-yl]-7-N-[trans-4-(4,4-difluoropiperidin-1-yl)cyclohexyl]-[1,3]thiazolo[5,4-d]pyrimidine-5,7-diamine]	≤ 1000	≤ 250	
CCc1nc2c(N[C@H]3CC[C@@H](N4CCC(F)(F)CC4)CC3)nc(Nc3cnn(C)c3)nc2s1 [Compound I-12, N7-((1s,4s)-4-(4,4-difluoropiperidin-1-yl)cyclohexyl)-2-ethyl-N5-(1-methyl-4H-pyrazol-4-yl)thiazolo[5,4-d]pyrimidine-5,7-diamine]	≤ 1000	250 to 500	250 to 500
CCc1nc2c(N[C@H]3CC[C@H](N4CCC5(CC4)COC5)CC3)nc(Nc3cnn(C4CCOCC4)c3)nc2s1 [Compound I-14, N7-((1r,4r)-4-(2-oxa-7-azaspiro[3.5]nonan-7-yl)cyclohexyl)-2-ethyl-N5-(1-(tetrahydro-2H-pyran-4-yl)-1H-pyrazol-4-yl)thiazolo[5,4-d]pyrimidine-5,7-diamine]	≤ 1000	≤ 250	≤ 250
CCc1nc2c(N[C@H]3CC[C@H](N4CCOCC4)CC3)nc(Nc3cnn(C4CCS(=O)(=O)CC4)c3)nc2s1 [Compound I-10, 4-(4-((2-ethyl-7-(((1r,4r)-4-morpholino-cyclohexyl)amino)-thiazolo[5,4-d]pyrimidin-5-yl)amino)-1H-pyrazol-1-yl)tetrahydro-2H-thiopyran 1,1-dioxide]	≤ 1000	≤ 250	≤ 250
CC(O)c1nc2c(N[C@H]3CC[C@H](N4CCOCC4)CC3)nc(Nc3cnn(C)c3)nc2s1 (stereo partly drawn) [Compound I-35, 1-(5-((1-methyl-1H-pyrazol-4-yl)amino)-7-(((1r,4r)-4-morpholino-cyclohexyl)amino)thiazolo[5,4-d]pyrimidin-2-yl)ethan-1-ol]	≤ 1000	≥ 500	≥ 500
Cc1nc2c(N[C@H]3CC[C@H](N4CCC(O)CC4)CC3)nc(Nc3cnn(C)c3)nc2s1 [Compound I-30, 1-((1r,4r)-4-((2-methyl-5-((1-methyl-1H-pyrazol-4-yl)amino)thiazolo[5,4-d]pyrimidin-7-yl)amino)cyclohexyl)piperidin-4-ol]	≤ 1000	≥ 500	
CCc1nc2c(N[C@H]3CC[C@H](N4CCOCC4)CC3)nc(Nc3cnn(CCOCCO)c3)nc2s1 [Compound I-28, 2-(2-(4-((2-ethyl-7-(((1r,4r)-4-morpholinocyclohexyl)amino)thia-zolo[5,4-d]pyrimidin-5-yl)amino)-1H-pyrazol-1-yl)ethoxy)ethan-1-ol]	≤ 1000	250 to 500	≤ 250
CCn1cc(Nc2nc(N[C@H]3CC[C@H](N4CCOCC4)CC3)c3nc(C)sc3n2)cn1 [Compound I-36, N5-(1-ethyl-1H-pyrazol-4-yl)-2-methyl-N7-((1r,4r)-4-morpholinocyclohexyl)thiazolo[5,4-d]pyrimidine-5,7-diamine]	≤ 1000	250 to 500	≤ 250
Cc1nc2c(N[C@H]3CC[C@H](N4CCC5(CC4)COC5)CC3)nc(Nc3cnn(C)c3)nc2s1 [Compound I-42, N7-((1r,4r)-4-(2-oxa-7-azaspiro[3.5]nonan-7-yl)cyclohexyl)-2-methyl-N5-(1-methyl-1H-pyrazol-4-yl)thiazolo[5,4-d]pyrimidine-5,7-diamine]	≤ 1000	250 to 500	250 to 500
CCc1nc2c(N[C@H]3CC[C@H](N4CCOCC4)CC3)nc(Nc3cnn(CCCS(C)(=O)=O)c3)nc2s1 [Compound I-27, 2-ethyl-N5-(1-(3-(methylsulfonyl)propyl)-1H-pyrazol-4-yl)-N7-((1r,4r)-4-morpholinocyclohexyl)thiazolo[5,4-d]pyrimidine-5,7-diamine]	≤ 1000	250 to 500	≤ 250
CCc1nc2c(N[C@H]3CC[C@H](N4CCOCC4)CC3)nc(Nc3cnn(CC4CCOCC4)c3)nc2s1 [Compound I-18, 2-ethyl-N7-((1r,4r)-4-morpholinocyclohexyl)-N5-(1-((tetrahydro-2H-pyran-4-yl)methyl)-1H-pyrazol-4-yl)thiazolo[5,4-d]pyrimidine-5,7-diamine]	≤ 1000	≤ 250	≤ 250
